Patent US5225607A, “Insecticidal ethers” (Imperial Chemical Industries PLC, priority 1985, dated 1993)

Tests used:
Assay type in all cases: in vivo
Tetranychus urticae = test: Insecticidal/acaricidal test, Tetranychus urticae (spider mites - adult), contact; details: 72 h, French bean leaf, 3 days, read-out: grading of mortality, TU
Summary of the method: (§1)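 Product applied at 500, 250 or 100 ppm as acetone solution diluted in water with 0.01% Lissapol NX wetting agent, onto pests and/or their host plant or food medium. Mortality or knockdown scored 1–3 days after treatment and graded A (80–100%; 70–100% for S. exigua), B (50–79%; 50–69% for S. exigua) or C (<50%).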

Myzus persicae = test: Insecticidal test, Myzus persicae (aphids), contact; details: 72 h, Chinese Cabbage leaf, 3 days, read-out: grading of mortality, MP
Summary of the method: as §1

Nilaparvata lugens = test: Insecticidal test, Nilaparvata lugens (brown planthopper), contact; details: 72 h, Cabbage leaf, 3 days, read-out: grading of mortality, NL
Summary of the method: as §1

Musca domestica [1] = test: Knockdown test, Musca domestica (houseflies - adults); details: cotton wool/sugar, 4 hours, read-out: grading of knockdown, MD/KD
Summary of the method: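 Adult houseflies were exposed to the compound as aqueous acetone preparations with 0.01% Lissapol NX wetting agent, at 500, 250 or 100 ppm. Knockdown was graded A (80–100%), B (50–79%) or C (<50%).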

Musca domestica [2] = test: Insecticidal test, Musca domestica (houseflies - adults), contact; details: 24 h, cotton wool/sugar, 1 day, read-out: grading of mortality, MD
Summary of the method: as §1

Blattella germanica = test: Insecticidal test, Blattella germanica (cockroach nymphs), residual; details: 72 h, plastic pot, 3 days, read-out: grading of mortality, BG
Summary of the method: as §1

Heliothis virescens = test: whole plant or invertebrate; details: in Gossypium hirsutum, 72 h, read-out: grading of mortality, HV
Summary of the method: as §1

Spodoptera exigua = test: Insecticidal test, Spodoptera exigua (lesser armyworm), residual; details: 72 h, cotton leaf, 3 days, read-out: grading of mortality, SE
Procedure: The activity of the Product was determined using a variety of insect and acarine pests. The Product was used in the form of liquid preparations containing 500, 250 or 100 parts per million (ppm) by weight of the Product. The preparations were made by dissolving the Product in acetone and diluting the solutions with water containing 0.01% by weight of a wetting agent sold under the trade name "LISSAPOL" NX until the liquid preparations contained the required concentratio of the Product. "Lissapol" is a Registered Trade Mark.
The test procedure adopted with regard to each pest was basically the same and comprised supporting a number of the pests on a medium which was usually a host plant or a foodstuff on which the pests feed, and treating either or both the pests and the medium with the preparations. The mortality of the pests was then assessed at periods usually varying from one to three days after the treatment.
The results of the tests are given in Table IV for each of the Products, at the rate in parts per million given in the second column as a grading of mortality designated as A, B or C wherein A indicates 80-100% mortality or knockdown (70-100% in the case of Spodoptera exigua), B indicates 50-79% mortality or knockdown (50-69% in the case of Spodoptera exigua) and C indicates less than 50% mortality or knockdown.
In Table IV the pest organism used is designated by a letter code and the pest species, the support medium or food, and the type and duration of test is given in Table III.

Diabrotica balteata = test: Insecticidal test, Diabrotica balteata (rootworm larvae), residual; details: 72 h, filter paper/maize seed, 3 days, read-out: grading of mortality, DB
Summary of the method: as §1

SMILES	mortality at 500 ppm (Tetranychus urticae)	mortality at 500 ppm (Myzus persicae)	mortality at 500 ppm (Nilaparvata lugens)	pest or weed control at 500 ppm (Musca domestica [1])	mortality at 500 ppm (Musca domestica [2])	mortality at 500 ppm (Blattella germanica)	mortality at 500 ppm (Heliothis virescens)	mortality at 500 ppm (Spodoptera exigua)	mortality at 500 ppm (Diabrotica balteata)	mortality at 100 ppm (Tetranychus urticae)	mortality at 100 ppm (Myzus persicae)	mortality at 100 ppm (Nilaparvata lugens)	pest or weed control at 100 ppm (Musca domestica [1])	mortality at 100 ppm (Musca domestica [2])	mortality at 100 ppm (Blattella germanica)	mortality at 100 ppm (Heliothis virescens)	mortality at 100 ppm (Spodoptera exigua)	mortality at 100 ppm (Diabrotica balteata)
OC(COCc1ccc(F)c(Oc2ccccc2)c1)(c1ccc(Br)cc1)C(F)(F)F (stereo not drawn) [Compound 127, 1,1,1-Trifluoro-2-(4-bromophenyl)-3-(3-phenoxy-4-fluorobenzyloxy)propan-2-ol]	< 50%	< 50%	< 50%	80 to 100%	50 to 79%	< 50%	< 50%	50 to 69%	80 to 100%									
OC(COCc1cccc(Oc2ccccc2)c1)(c1ccc(C(F)(F)F)cc1)C(F)(F)F (stereo not drawn) [Compound 137, 1,1,1-Trifluoro-2-(4-trifluoromethylphenyl)-3-(3-phenoxybenzyloxy)propan-2-ol]	< 50%	80 to 100%	< 50%	< 50%	< 50%	< 50%	< 50%	70 to 100%	< 50%									
Cc1ccc(C(O)(COCc2cccc(Oc3ccccc3)c2)C(F)(F)F)cc1 (stereo not drawn) [Compound 120, 1,1,1-Trifluoro-2-(4-methylphenyl)-3-(3-phenoxybenzyloxy)propan-2-ol]	< 50%	< 50%	< 50%	80 to 100%	< 50%	< 50%	< 50%	< 50%	< 50%									
CCOc1c(F)cc(C(COCc2cccc(Oc3ccccc3)c2)C(F)(F)F)cc1F (racemic) [Compound 163, (RS)-1,1,1-trifluoro-2-(3,5-difluoro-4-ethoxyphenyl)-3-(3-phenoxybenzyloxy)propane]	80 to 100%	80 to 100%	80 to 100%	80 to 100%	80 to 100%	80 to 100%	80 to 100%	70 to 100%	80 to 100%									
FC(F)(F)Oc1ccc(C(Cl)(COCc2cccc(Oc3ccccc3)n2)C(F)(F)F)cc1 (stereo not drawn) [Compound 61]										80 to 100%	80 to 100%	80 to 100%	80 to 100%	80 to 100%	80 to 100%	80 to 100%	70 to 100%	80 to 100%
FC(F)(F)C(COCc1cccc(Oc2ccc(Cl)cc2)c1)c1ccc2c(c1)OCO2 (stereo not drawn) [Compound 32, 1,1,1-Trifluoro-2-(3,4-methylenedioxyphenyl)-3-(3-(4-chlorophenoxy)benzyloxy)propane]	< 50%	50 to 79%	80 to 100%	80 to 100%	80 to 100%	50 to 79%	80 to 100%	70 to 100%	80 to 100%									
CCOc1ccc(C(COCc2ccc(F)c(Cc3ccccc3)c2)C(F)(F)F)cc1 (stereo not drawn) [Compound 8]	< 50%	80 to 100%	80 to 100%	80 to 100%	80 to 100%	80 to 100%	80 to 100%	70 to 100%	80 to 100%									
CCOc1ccc([C@H](CO[C@@H](C#N)c2cccc(Oc3ccccc3)c2)C(F)(F)F)cc1 (racemic) [Compound 252, (2RS)-1,1,1-trifluoro-2-(4-ethoxyphenyl)-3-[(RS)-α-cyano-3-phenoxybenzyloxy]propane]	< 50%	80 to 100%	80 to 100%	80 to 100%	80 to 100%	50 to 79%	80 to 100%	70 to 100%	80 to 100%									
CCOc1ccc(C(COCc2cccc(Oc3ccc(Cl)cc3)c2)C(F)(F)F)cc1F (stereo not drawn) [Compound 13, 1,1,1-Trifluoro-2-(3-fluoro-4-ethoxyphenyl)-3-(3-(4-chlorophenoxy)benzyloxy)propane]										< 50%	80 to 100%	80 to 100%	80 to 100%	80 to 100%	80 to 100%	80 to 100%	70 to 100%	50 to 79%
CCOc1ccc(C(COCc2cccc(Nc3ccc(F)cc3)c2)C(F)(F)F)cc1 (stereo not drawn) [Compound 11, 1,1,1-Trifluoro-2-(4-ethoxyphenyl)-3-(3-(4-fluorophenylamino)benzyloxy)propane]	< 50%	< 50%	80 to 100%	80 to 100%	50 to 79%	50 to 79%	< 50%	50 to 69%	< 50%									
CCOc1c(F)cc(C(COCc2cccc(Oc3ccc(Cl)cc3)c2)C(F)(F)F)cc1F (racemic) [Compound 165, (RS)-1,1,1-Trifluoro-2-(3,5-difluoro-4-ethoxyphenyl)-3 (3-(4-chlorophenoxy)benzyloxy)propane]	80 to 100%	80 to 100%	80 to 100%	80 to 100%	80 to 100%	80 to 100%	80 to 100%	70 to 100%	80 to 100%									
CCOc1ccc([C@H](CO[C@H](C)c2cccc(Oc3ccccc3)c2)C(F)(F)F)cc1 (racemic) [Compound 256, (2RS)-1,1,1-trifluoro-2-(4-ethoxyphenyl)-3-[(1RS)-1-(3-phenoxyphenyl)ethoxy]propane]	< 50%	80 to 100%	80 to 100%	50 to 79%	80 to 100%	< 50%	80 to 100%	< 50%	< 50%									
FC(F)(F)C(Cl)(COCc1cccc(Oc2ccccc2)c1)c1ccc2c(c1)OCO2 (stereo not drawn) [Compound 64, 1,1,1-Trifluoro-2-chloro-2-(3,4-methylenedioxyphenyl)-3-(3-phenoxybenzyloxy)propane]	< 50%	< 50%	< 50%	50 to 79%	50 to 79%	< 50%	80 to 100%	< 50%	< 50%									
COCc1ccc(C(COCc2cccc(Oc3ccccc3)c2)C(F)(F)F)cc1 (stereo not drawn) [Compound 24, 1,1,1-Trifluoro-2-(4-methoxymethylphenyl)-3-(3-phenoxybenzyloxy)propane]										< 50%	80 to 100%	80 to 100%	80 to 100%	80 to 100%	80 to 100%	50 to 79%	70 to 100%	80 to 100%
FC(F)(F)Oc1ccc(C(Cl)(COCc2cccc(Oc3ccc(Cl)cc3)c2)C(F)(F)F)cc1 (stereo not drawn) [Compound 60, 1,1,1-Trifluoro-2-chloro-2-(4-trifluoromethoxyphenyl)-3-(3-(4-chlorophenoxy)benzyloxy)propane]										< 50%	50 to 79%	80 to 100%	< 50%	< 50%	80 to 100%	80 to 100%	70 to 100%	< 50%
